Assay results: article PMC9851200, “Multiparameter phenotypic screening for endogenous TFEB and TFE3 translocation identifies novel chemical series modulating lysosome function” (Autophagy, 2022)
Like-named read-outs stand apart in the source and are kept apart here.

How the values were obtained:
ACVR1B [1] = target: T1, ACVR1B (Homo sapiens, UniProt P36896); conditions: cited from earlier work
T1 sequence (P36896 24-505): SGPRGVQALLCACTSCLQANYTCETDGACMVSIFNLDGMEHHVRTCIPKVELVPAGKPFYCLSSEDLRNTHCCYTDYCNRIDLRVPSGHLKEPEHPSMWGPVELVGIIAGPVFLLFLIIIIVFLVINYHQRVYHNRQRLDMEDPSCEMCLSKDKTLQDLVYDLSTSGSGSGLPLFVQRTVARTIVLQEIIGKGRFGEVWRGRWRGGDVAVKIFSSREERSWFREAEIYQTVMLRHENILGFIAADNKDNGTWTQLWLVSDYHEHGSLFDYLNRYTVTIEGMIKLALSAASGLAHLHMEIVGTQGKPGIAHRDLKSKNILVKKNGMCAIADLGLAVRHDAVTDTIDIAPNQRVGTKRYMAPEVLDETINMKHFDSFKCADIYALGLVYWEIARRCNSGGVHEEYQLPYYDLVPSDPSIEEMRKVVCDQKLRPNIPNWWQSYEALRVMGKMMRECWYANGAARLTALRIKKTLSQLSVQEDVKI

CSNK1D = CSNK1D (Homo sapiens, UniProt P48730); conditions: cited from earlier work
PRKD1 = target: T2, PRKD1 (Homo sapiens, UniProt Q15139); conditions: cited from earlier work
T2 sequence (Q15139 1-912): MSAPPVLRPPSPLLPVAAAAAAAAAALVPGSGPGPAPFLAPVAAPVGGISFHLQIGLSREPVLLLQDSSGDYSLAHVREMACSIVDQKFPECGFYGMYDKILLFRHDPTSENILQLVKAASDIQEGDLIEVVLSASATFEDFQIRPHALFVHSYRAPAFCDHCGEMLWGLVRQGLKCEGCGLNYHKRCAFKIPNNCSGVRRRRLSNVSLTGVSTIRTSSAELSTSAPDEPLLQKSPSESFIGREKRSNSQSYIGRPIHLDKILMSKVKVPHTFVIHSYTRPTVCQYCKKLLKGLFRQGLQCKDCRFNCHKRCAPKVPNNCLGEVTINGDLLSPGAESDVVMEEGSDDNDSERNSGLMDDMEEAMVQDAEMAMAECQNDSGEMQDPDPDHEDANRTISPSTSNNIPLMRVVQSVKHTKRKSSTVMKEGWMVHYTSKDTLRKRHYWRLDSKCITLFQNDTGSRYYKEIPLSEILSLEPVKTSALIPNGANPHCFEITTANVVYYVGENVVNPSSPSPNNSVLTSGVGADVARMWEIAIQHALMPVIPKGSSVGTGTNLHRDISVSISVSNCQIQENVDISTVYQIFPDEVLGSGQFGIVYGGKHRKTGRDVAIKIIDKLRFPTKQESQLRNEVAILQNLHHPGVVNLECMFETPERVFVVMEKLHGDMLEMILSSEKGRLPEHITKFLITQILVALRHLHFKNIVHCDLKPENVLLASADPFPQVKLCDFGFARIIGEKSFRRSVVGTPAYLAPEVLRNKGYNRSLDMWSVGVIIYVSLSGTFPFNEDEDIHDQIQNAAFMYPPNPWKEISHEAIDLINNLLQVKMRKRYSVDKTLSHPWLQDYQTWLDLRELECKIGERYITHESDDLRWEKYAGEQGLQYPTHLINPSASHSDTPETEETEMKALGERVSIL

TFEB or TFE3 = experiment: EC50 line in the head of Table S5 (cellular activity of the analogs, assay not given); assay type: cell-based; conditions: assay not named, unit printed only in the first two cells
Method: Figure S5. Activity of quinazoline analogs. […] Compounds were screen at 24-h treatment time up to 5 µM concentration. Data for each compound is represented on single graphs with their structures shown. n=1 for all above assays, mean±s.d. (B) Representative western blot of TFEB levels following treatment of compounds followed by fractionation into cytoplasmic (C) and nuclear (N) compartments. Successful fractionation represented by enrichment of GAPDH in the cytoplasmic fraction and LMNA (lamin A/C) in the nuclear compartment. (C) The levels of nuclear/cytoplasmic TFEB were quantified and presented as a ratio. A paired one-way ANOVA with a Holm-Šídák's multiple comparisons test was performed relative to DMSO for comparison between each compound treatments (n=3).

MAPK10/JNK3 = MAPK10/JNK3 (Homo sapiens, UniProt P53779); conditions: cited from earlier work
MAPK9/JNK2 = MAPK9/JNK2 (Homo sapiens, UniProt P45984); conditions: cited from earlier work
MINK1/MINK = MINK1/MINK (Homo sapiens, UniProt Q8N4C8); conditions: cited from earlier work
STK10/LOK = STK10/LOK (Homo sapiens, UniProt O94804); conditions: cited from earlier work
TGFBR1 = target: T3, TGFBR1 (Homo sapiens, UniProt P36897); conditions: cited from earlier work
T3 sequence (P36897 34-503): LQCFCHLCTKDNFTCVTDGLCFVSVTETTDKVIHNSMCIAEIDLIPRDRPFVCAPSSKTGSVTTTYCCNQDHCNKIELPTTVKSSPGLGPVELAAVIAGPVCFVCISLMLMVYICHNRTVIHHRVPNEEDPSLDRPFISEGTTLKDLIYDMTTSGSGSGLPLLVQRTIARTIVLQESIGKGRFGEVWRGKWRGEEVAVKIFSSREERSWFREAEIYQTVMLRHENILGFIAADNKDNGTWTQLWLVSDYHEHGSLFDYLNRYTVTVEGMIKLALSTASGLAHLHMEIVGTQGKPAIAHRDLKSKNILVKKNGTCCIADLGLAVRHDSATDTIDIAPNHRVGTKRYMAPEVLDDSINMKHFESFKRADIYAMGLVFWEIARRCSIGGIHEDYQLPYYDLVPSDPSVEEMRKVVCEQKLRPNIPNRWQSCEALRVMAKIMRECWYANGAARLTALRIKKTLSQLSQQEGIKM

ALK5/TGFBR1 = conditions: cited from earlier work
MTOR = MTOR (Homo sapiens, UniProt P42345); experiment: KINOMEscan MTOR; assay type: binding; conditions: NEW KINOMEscan
CSNK1E = CSNK1E (Homo sapiens, UniProt P49674); experiment: KINOMEscan CSNK1E; assay type: binding; conditions: NEW KINOMEscan
ACVR1B [2] = target: T1, ACVR1B; experiment: KINOMEscan ACVR1B; assay type: binding
CIT = CIT (Homo sapiens, UniProt O14578); experiment: KINOMEscan CIT; assay type: binding; conditions: NEW KINOMEscan
TGFBR2 = TGFBR2 (Homo sapiens, UniProt P37173); experiment: KINOMEscan TGFBR2; assay type: binding; conditions: NEW KINOMEscan
Sequence of TGFBR2 (P37173 23-567): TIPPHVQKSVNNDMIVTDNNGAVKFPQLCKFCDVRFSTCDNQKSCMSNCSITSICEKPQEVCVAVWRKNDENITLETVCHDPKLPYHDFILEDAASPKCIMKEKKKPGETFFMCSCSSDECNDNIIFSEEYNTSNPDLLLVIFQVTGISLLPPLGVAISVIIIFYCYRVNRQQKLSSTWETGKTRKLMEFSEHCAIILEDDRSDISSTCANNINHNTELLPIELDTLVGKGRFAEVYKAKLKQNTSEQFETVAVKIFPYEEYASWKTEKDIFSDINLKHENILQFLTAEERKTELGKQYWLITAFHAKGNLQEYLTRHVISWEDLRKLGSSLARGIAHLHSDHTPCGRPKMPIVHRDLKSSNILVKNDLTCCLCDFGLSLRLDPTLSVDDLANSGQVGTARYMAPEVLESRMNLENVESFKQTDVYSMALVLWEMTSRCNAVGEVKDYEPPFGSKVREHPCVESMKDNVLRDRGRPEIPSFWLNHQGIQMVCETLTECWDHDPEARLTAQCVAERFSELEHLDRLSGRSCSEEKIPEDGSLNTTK

Sequence of MAPK10/JNK3 (P53779 whole entry): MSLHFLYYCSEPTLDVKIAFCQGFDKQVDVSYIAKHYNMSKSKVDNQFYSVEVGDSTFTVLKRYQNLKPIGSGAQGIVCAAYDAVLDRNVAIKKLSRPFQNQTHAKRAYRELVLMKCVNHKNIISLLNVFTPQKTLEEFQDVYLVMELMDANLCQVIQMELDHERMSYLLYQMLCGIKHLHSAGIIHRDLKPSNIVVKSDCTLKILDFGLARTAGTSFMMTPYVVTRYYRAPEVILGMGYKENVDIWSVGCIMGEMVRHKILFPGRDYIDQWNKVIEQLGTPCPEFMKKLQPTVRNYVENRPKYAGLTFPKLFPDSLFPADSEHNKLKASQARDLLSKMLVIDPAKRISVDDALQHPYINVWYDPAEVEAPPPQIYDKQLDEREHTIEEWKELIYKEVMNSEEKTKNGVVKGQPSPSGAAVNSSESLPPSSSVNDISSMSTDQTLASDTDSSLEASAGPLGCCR
Sequence of MINK1/MINK (Q8N4C8 whole entry): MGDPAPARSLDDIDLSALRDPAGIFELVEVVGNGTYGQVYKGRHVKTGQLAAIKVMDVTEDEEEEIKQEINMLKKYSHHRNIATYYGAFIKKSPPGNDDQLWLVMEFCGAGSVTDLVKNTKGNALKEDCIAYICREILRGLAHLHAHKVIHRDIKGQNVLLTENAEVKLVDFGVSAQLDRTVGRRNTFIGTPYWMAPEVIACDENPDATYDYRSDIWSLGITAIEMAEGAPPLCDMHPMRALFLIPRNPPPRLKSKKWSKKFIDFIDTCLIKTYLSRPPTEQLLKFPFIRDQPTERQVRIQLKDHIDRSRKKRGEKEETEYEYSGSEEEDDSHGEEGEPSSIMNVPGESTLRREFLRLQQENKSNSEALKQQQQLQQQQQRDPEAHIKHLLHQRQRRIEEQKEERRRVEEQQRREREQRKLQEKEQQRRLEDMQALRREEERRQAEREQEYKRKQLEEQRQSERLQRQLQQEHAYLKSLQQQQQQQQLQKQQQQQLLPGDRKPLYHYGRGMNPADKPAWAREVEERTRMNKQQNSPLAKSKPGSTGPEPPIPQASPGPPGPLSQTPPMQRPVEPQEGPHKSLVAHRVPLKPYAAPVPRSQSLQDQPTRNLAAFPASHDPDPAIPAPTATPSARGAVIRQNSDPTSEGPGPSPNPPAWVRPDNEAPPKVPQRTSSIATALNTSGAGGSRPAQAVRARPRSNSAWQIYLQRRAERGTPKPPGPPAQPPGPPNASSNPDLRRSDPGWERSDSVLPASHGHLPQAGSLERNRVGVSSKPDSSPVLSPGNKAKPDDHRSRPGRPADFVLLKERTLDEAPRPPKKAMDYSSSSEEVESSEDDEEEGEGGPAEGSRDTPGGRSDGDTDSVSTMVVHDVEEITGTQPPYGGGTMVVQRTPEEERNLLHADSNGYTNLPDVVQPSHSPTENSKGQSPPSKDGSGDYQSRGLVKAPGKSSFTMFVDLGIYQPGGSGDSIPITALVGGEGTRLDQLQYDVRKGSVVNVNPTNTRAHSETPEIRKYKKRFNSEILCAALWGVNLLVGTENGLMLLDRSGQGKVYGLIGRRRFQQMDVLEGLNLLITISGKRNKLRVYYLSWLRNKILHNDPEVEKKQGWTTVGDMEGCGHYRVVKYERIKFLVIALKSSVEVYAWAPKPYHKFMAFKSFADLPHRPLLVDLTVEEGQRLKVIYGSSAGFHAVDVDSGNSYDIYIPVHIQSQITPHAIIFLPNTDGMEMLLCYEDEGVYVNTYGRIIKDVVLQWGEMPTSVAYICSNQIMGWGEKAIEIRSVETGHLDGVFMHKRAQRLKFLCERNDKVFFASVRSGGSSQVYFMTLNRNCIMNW
Sequence of STK10/LOK (O94804 whole entry): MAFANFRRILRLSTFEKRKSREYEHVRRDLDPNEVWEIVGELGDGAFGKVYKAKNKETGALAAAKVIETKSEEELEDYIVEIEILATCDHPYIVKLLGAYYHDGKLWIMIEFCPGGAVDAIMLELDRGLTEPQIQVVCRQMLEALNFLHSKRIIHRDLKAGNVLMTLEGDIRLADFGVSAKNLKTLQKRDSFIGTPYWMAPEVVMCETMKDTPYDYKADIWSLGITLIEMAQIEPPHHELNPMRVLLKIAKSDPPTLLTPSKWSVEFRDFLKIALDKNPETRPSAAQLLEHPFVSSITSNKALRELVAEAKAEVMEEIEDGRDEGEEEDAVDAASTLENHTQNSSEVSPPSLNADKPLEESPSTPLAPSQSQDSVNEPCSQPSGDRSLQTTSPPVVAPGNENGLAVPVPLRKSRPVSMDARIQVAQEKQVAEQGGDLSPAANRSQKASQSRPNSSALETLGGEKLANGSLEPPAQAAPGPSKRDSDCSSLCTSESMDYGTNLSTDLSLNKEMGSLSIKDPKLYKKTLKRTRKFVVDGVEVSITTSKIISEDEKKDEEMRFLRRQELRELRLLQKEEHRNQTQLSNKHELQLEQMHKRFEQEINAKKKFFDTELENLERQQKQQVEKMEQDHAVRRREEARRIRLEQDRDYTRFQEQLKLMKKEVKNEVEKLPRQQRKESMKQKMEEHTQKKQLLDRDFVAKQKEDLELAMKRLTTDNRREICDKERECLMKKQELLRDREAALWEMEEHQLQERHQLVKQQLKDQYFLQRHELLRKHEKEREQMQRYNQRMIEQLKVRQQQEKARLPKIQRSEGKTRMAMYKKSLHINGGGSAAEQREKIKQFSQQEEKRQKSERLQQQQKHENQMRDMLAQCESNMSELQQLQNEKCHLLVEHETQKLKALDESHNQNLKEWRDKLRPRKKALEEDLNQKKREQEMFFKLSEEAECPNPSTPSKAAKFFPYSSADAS
Sequence of CSNK1D (P48730 whole entry): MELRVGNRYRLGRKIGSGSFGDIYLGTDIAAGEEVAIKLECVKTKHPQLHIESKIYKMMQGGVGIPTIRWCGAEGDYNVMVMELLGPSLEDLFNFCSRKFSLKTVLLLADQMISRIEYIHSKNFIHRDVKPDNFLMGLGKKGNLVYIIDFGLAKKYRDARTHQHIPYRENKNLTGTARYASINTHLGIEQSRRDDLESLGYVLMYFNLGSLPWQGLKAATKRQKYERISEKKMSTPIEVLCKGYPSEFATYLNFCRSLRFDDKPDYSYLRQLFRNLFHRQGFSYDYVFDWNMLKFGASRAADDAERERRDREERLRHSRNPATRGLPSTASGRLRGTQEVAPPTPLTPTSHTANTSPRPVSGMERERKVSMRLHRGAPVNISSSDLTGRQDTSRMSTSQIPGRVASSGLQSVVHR
Sequence of MAPK9/JNK2 (P45984 whole entry): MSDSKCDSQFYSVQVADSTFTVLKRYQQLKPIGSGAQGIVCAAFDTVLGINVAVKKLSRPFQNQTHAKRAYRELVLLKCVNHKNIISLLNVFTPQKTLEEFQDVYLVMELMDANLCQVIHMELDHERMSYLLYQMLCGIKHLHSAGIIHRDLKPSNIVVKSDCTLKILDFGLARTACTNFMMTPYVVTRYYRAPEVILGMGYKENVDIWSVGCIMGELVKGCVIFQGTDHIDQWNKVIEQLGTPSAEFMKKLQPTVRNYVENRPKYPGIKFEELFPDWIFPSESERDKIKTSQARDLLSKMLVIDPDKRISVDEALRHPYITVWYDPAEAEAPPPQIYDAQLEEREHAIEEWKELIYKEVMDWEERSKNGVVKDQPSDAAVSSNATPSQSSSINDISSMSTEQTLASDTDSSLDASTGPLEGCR
Sequence of CSNK1E (P49674 whole entry): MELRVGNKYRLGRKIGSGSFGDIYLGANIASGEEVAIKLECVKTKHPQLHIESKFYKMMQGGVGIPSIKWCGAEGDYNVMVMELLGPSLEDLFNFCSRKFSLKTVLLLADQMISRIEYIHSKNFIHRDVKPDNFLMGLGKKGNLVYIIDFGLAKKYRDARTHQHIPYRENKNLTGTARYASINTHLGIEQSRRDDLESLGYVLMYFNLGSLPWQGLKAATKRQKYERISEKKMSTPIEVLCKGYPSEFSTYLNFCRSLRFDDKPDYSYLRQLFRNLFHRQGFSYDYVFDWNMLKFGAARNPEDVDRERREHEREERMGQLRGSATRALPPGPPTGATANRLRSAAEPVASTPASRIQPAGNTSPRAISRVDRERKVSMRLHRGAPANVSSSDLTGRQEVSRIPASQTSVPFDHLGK

Row | Compound | KINOMEscan binding ACVR1B (ACVR1B [1]) | KINOMEscan binding CSNK1D (CSNK1D) | KINOMEscan binding PRKD1 (PRKD1) | KINOMEscan binding MAPK10/JNK3 (MAPK10/JNK3) | KINOMEscan binding MAPK9/JNK2 (MAPK9/JNK2) | KINOMEscan binding MINK1/MINK (MINK1/MINK) | KINOMEscan binding STK10/LOK (STK10/LOK) | further results
1 | Cc1cccc(-c2nc(Nc3ccncc3)c3sccc3n2)n1 [GW869641] | 96.5% | 90% | 99.3% |  |  |  |  | 
2 | Cc1cccc(-c2nc(Nc3ccc4ncsc4c3)c3ccccc3n2)n1 [NK140] |  |  |  |  |  |  |  | EC50 (TFEB or TFE3): 650 nM
3 | Cc1cccc(-c2nc(Nc3cccc(C(N)=O)c3)c3ccccc3n2)n1 [GW876019] | 83% | 8% | 64% |  |  |  |  | 
4 | Cc1cccc(-c2nc(Nc3ccncc3)c3ccccc3n2)n1 [NK215] |  |  |  |  |  |  |  | KINOMEscan ACVR1B (ACVR1B [1]): 94.3; KINOMEscan CSNK1D (CSNK1D; CSNK1D, Published KINOMEscan, ref original PKIS2 published data): 73; KINOMEscan PRKD1 (PRKD1; PRKD1, Published KINOMEscan, ref original PKIS2 published data): 86
5 | COc1ccc2nc(-c3cccc(C)n3)nc(Nc3ccncc3)c2c1 [GSK204919] |  | 49% | 92.4% | 36% | 60% | 30% | 0% | 
6 | Cc1cccc(-c2cc(Nc3ccncc3)c3ccccc3n2)n1 [GSK223675] | 88% | 14% | 91.1% |  |  |  |  | 
7 | Cc1cccc(-c2nc(Nc3ccc4c(cnn4C)c3)c3ccccc3n2)n1 [GW876731] | 64% | 50% | 99.2% |  |  |  |  | 
8 | Cc1cc(Nc2nc(-c3cccc(C)n3)nc3ccccc23)ccn1 [GW872411] | 73% | 35% | 99.4% | 0% | 14% | 1% | 0% | KINOMEscan binding TGFBR1 (TGFBR1): 83%
9 | Clc1cccc(-c2nc(Nc3ccncc3)c3ccccc3n2)c1 [GW873004] | 72% | 12% | 47% |  |  |  |  | TGFBR1 binding (ALK5/TGFBR1): 0.65 µM
10 | Cc1cccc(-c2nc(Nc3ccc4nn[nH]c4c3)c3ccccc3n2)n1 [GW867587] | 0% | 4% | 94.2% | 0% | 0% | 0% | 0% | TGFBR1 binding (ALK5/TGFBR1): 0.59 µM; KINOMEscan binding TGFBR1 (TGFBR1): 32%
11 | Cc1cccc(-c2nc(N(C)c3ccc4ncsc4c3)c3ccccc3n2)n1 [NK-161] |  |  |  |  |  |  |  | KINOMEscan MTOR (MTOR): 4; KINOMEscan CSNK1E (CSNK1E): 7; KINOMEscan ACVR1B (ACVR1B [2]; ACVR1B, NEW KINOMEscan): 28; EC50 (TFEB or TFE3): 1100 nM; KINOMEscan CIT (CIT): 0; KINOMEscan TGFBR2 (TGFBR2): 0
12 | Cc1cccc(-c2nc(Nc3ccc4ncsc4c3)c3ccccc3n2)n1 [GW867588] | 35% | 0% | 98.7% | 0% | 8% | 0% | 27% | KINOMEscan binding TGFBR1 (TGFBR1): 55%
13 | Cc1csc(-c2nc(Nc3ccncc3)c3ccccc3n2)n1 [GW869640] | 94.7% | 46% | 69% |  |  |  |  | 
14 | Cc1cccc(-c2nc(Nc3ccc4nn(C)cc4c3)c3ccccc3n2)n1 [NK167] |  |  |  |  |  |  |  | KINOMEscan MTOR (MTOR): 0; KINOMEscan CSNK1E (CSNK1E): 8; KINOMEscan ACVR1B (ACVR1B [2]): 20; EC50 (TFEB or TFE3): 1000 nM; KINOMEscan CIT (CIT): 3; KINOMEscan TGFBR2 (TGFBR2): 0
15 | Cc1cccc(-c2nc(C)cc(Nc3ccncc3)n2)n1 [GSK257997] | 78% | 43% | 78% | 32% | 43% | 6% | 0% | TGFBR1 binding (ALK5/TGFBR1): 0.025 µM; KINOMEscan binding TGFBR1 (TGFBR1): 100%
16 | Cc1ccc(-c2nc(Nc3ccncc3)c3ccccc3n2)s1 [GSK189015] | 0% | 33% | 18% | 14% | 19% | 2% | 1% | KINOMEscan binding TGFBR1 (TGFBR1): 6%
17 | Cc1cccc(-c2nc(Nc3ccncc3)c3ccccc3n2)n1 [GW855857] | 94.3% | 73% | 86% |  |  |  |  | 
